# Test results from patent publication US6521814B1, “Use of ligands for treatment of diseases responsive to retinoids” (Institut National de la Santa et de la Recherche Medicale, priority 1997, dated 2003).
# How the values were obtained:
# mouse RXRγ (mouse) = mouse RXRγ (mouse) (UniProt P28705); assay: cell-based or functional assay
# RARα−/− F9 cells [1] = assay: Morphological differentiation of F9 cell aggregates into visceral endoderm (VE)-like cells (morphology, RT-PCR of markers); format: cell-based, murine; set-up: key to proportion of outer layer of cells displaying VE morphology: +++: more than 80%; ++: 50-80%; +: 10-50%; ±: not more than 10%; (−): no visible effect; conditions: 10 d
# From the text: (§1) Similarly, after 10 d of treatment, >80% of the outer layer of RARα^−/− and RXRα^−/−/RARα^−/− cell aggregates differentiated into VE-like cells, which were indistinguishable from those of WT and RXRα^−/− cells (FIG. 23A, compare f with panels b and d; and Table 9). […] To exclude the possibility that this very poor differentiation of the RXRα^−/−/RARγ^−/− cells could be due to some clonal variation, rather than the presence of the RXRα-null mutation in the RARγ-null background, we expressed the RXRα cDNA in RXRα^−/−/RARγ^−/− cells.
# (§2) F9 cells were cultured and induced to differentiate into primitive, parietal and visceral endoderm-like cells as previously described (Boylan, J., et al., Proc. Natl. Acad. Sci. USA 90:9601-9605 (1993); Clifford, J., et al., EMBO J. 15:4142-4155 (1996)).
# (§3) RNA preparation, RT-PCR, and Southern blotting were performed as previously described (Bouillet, P., et al., Dev. Biol. 170:420-433 (1995); Roy, B., et al., Mol. Cell. Biol. 15:6481-6487 (1995)). The PCR primers and end-labeled oligonucleotide probes for collagen IVα1, laminin B1, α-fetoprotein (AFP), and 36B4, were described previously (Clifford, J., et al ., EMBO J. 15:4142-4155 (1996)). Transcript levels were quantified using a BAS 2000 bioimaging analyzer (Fuji Ltd., Tokyo, Japan), and were normalized to the corresponding 36B4 signals.
# WT F9 cells [2] = assay: as above; format: cell-based, murine; set-up: key to proportion of outer layer of cells displaying VE morphology: +++: more than 80%; ++: 50-80%; +: 10-50%; ±: not more than 10%; (−): no visible effect; conditions: WT, 10 d
# From the text: as §1, §2, §3
# RARγ−/− F9 cells [3] = assay: as above; format: cell-based, murine; set-up: key to proportion of outer layer of cells displaying VE morphology: +++: more than 80%; ++: 50-80%; +: 10-50%; ±: not more than 10%; (−): no visible effect; conditions: RARγ−/−, 10 d
# Method: as §2, §3
# RARα−/− F9 cells [4] = assay: Proliferation of F9 cells in monolayer culture (cell counting, [3H]thymidine incorporation, cell cycle FACS); format: cell-based, murine; conditions: 6 d
# Method: (§4) Cells were plated in triplicate 3-cm culture wells (5×10^2 cells per well), and cell counting experiments were performed as previously described (Clifford, J., et al., EMBO J. 15:4142-4155 (1996)). [^3H]Thymidine incorporation assays were performed essentially as described (Clifford, J., et al., EMBO J. 15:4142-4155 (1996)), with the following modifications. […] The cell cycle profile of WT and mutant cells was determined as previously described (Clifford, J., et al. EMBO J. 15:4142-4155 (1996)).
# RARγ−/− F9 cells [5] = assay: as above; format: cell-based, murine; conditions: 6 d
# Method: as §4
# WT F9 cells [6] = assay: as above; format: cell-based, murine; conditions: 6 d
# Method: as §4
# RXRα−/− F9 cells [7] = assay: as above; format: cell-based, murine; conditions: 6 d
# RXRα−/−/RARα−/− F9 cells [8] = assay: as above; format: cell-based, murine; conditions: 6 d
# RXRα−/−/RARγ−/− F9 cells = assay: as above; format: cell-based, murine; conditions: 6 d
# RARγ−/− F9 cells [9] = assay: Apoptosis of F9 cells (Hoechst 33258 staining, FACS); format: cell-based, murine; conditions: 6 d
# Method: (§5) Apoptosis was analyzed by both Hoechst staining of nuclei and FACS® analysis, as previously described (Clifford, J., et al., EMBO J. 15:4142-4155 (1996)).
# WT F9 cells [10] = assay: as above; format: cell-based, murine; conditions: 6 d
# Method: as §5
# RARα−/− F9 cells [11] = assay: as above; format: cell-based, murine; set-up: key: (−): no visible effect; conditions: 6 d
# Method: as §5
# RXRα−/− F9 cells [12] = assay: as above; format: cell-based, murine; conditions: 100 nM, 6 d
# RXRα−/−/RARα−/− F9 cells [13] = assay: as above; format: cell-based, murine; conditions: 100 nM, 6 d
# mouse RXRγ (mouse), sequence (P28705 whole entry): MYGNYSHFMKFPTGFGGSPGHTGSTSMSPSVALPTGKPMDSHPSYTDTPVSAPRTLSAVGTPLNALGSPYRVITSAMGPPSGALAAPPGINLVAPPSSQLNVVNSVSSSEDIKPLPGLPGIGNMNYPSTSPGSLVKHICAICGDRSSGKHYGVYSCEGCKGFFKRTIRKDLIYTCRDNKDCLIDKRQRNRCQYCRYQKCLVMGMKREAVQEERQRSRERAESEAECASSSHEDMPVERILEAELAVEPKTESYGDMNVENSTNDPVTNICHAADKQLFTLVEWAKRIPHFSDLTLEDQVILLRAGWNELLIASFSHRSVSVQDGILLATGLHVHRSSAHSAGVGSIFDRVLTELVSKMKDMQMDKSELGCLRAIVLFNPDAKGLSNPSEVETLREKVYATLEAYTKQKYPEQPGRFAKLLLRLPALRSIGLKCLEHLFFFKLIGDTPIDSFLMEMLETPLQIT
compound,measurement,setting,value
mouse RARα (from UniProt P11416 1-462) (receptor),"CAT activity of the C1 reporter (D2R promoter) in COS-1 cells cotransfected with RARα and RXRγ, in the presence of t-RA and 9-cis-RA",mouse RXRγ (mouse),45 fold
same,"CAT activity of the C2 reporter in COS-1 cells coexpressing RARα/RXRγ, in the presence of t-RA and 9-cis-RA",mouse RXRγ (mouse),66 fold
same,"CAT activity of the C3 reporter (D2R RARE upstream of the TK promoter) in COS-1 cells cotransfected with RARα/RXRγ, in the presence of t-RA and 9-cis-RA",mouse RXRγ (mouse),11 fold
CC1(C)CC=C(c2ccccc2)c2cc(/C=C/c3ccc(C(=O)O)cc3)ccc21 [RARβ agonist],proportion of outer layer of cells displaying VE morphology,RARα−/− F9 cells [1]; 500 nM,(−)
same,proportion of outer layer of cells displaying VE morphology,WT F9 cells [2]; 500 nM,(−)
same,proportion of outer layer of cells displaying VE morphology,RARγ−/− F9 cells [3]; 500 nM,± (not more than 10%)
same,number of cells in percent relative to cells grown in 0.1% ethanol,RARα−/− F9 cells [4]; 500 nM,100%
same,number of cells in percent relative to cells grown in 0.1% ethanol,RARγ−/− F9 cells [5]; 50 nM,100%
same,number of cells in percent relative to cells grown in 0.1% ethanol,RARγ−/− F9 cells [5]; 500 nM,100%
same,number of cells in percent relative to cells grown in 0.1% ethanol,WT F9 cells [6]; 50 nM,100%
same,number of cells in percent relative to cells grown in 0.1% ethanol,WT F9 cells [6]; 500 nM,100%
same,number of cells in percent relative to cells grown in 0.1% ethanol,RXRα−/− F9 cells [7]; 50 nM,100%
same,number of cells in percent relative to cells grown in 0.1% ethanol,RXRα−/− F9 cells [7]; 500 nM,100%
same,number of cells in percent relative to cells grown in 0.1% ethanol,RXRα−/−/RARα−/− F9 cells [8]; 500 nM,100%
same,number of cells in percent relative to cells grown in 0.1% ethanol,RXRα−/−/RARγ−/− F9 cells; 500 nM,120%
same,proportion of apoptotic nuclei and subcellular fragments (Hoechst 33258),RARγ−/− F9 cells [9]; 500 nM,(−)
same,proportion of apoptotic nuclei and subcellular fragments (Hoechst 33258),WT F9 cells [10]; 500 nM,(−)
same,proportion of apoptotic nuclei and subcellular fragments (Hoechst 33258),RARα−/− F9 cells [11]; 500 nM,(−)
CC1(C)C(=O)C(C)(C)c2cc(C(=O)Nc3ccc(C(=O)O)cc3)ccc21 [RARα agonist],proportion of outer layer of cells displaying VE morphology,RARα−/− F9 cells [1]; 100 nM,(−)
same,proportion of outer layer of cells displaying VE morphology,WT F9 cells [2]; 10 nM,(−)
same,proportion of outer layer of cells displaying VE morphology,WT F9 cells [2]; 100 nM,(−)
same,proportion of outer layer of cells displaying VE morphology,RARγ−/− F9 cells [3]; 10 nM,(−)
same,proportion of outer layer of cells displaying VE morphology,RARγ−/− F9 cells [3]; 100 nM,± (not more than 10%)
same,number of cells in percent relative to cells grown in 0.1% ethanol,RARα−/− F9 cells [4]; 10 nM,100%
same,number of cells in percent relative to cells grown in 0.1% ethanol,RARα−/− F9 cells [4]; 100 nM,100%
same,number of cells in percent relative to cells grown in 0.1% ethanol,RARγ−/− F9 cells [5]; 10 nM,100%
same,number of cells in percent relative to cells grown in 0.1% ethanol,RARγ−/− F9 cells [5]; 100 nM,100%
same,number of cells in percent relative to cells grown in 0.1% ethanol,WT F9 cells [6]; 10 nM,100%
same,number of cells in percent relative to cells grown in 0.1% ethanol,WT F9 cells [6]; 100 nM,100%
same,number of cells in percent relative to cells grown in 0.1% ethanol,RXRα−/− F9 cells [7]; 10 nM,100%
same,number of cells in percent relative to cells grown in 0.1% ethanol,RXRα−/− F9 cells [7]; 100 nM,100%
same,number of cells in percent relative to cells grown in 0.1% ethanol,RXRα−/−/RARα−/− F9 cells [8]; 10 nM,100%
same,number of cells in percent relative to cells grown in 0.1% ethanol,RXRα−/−/RARα−/− F9 cells [8]; 100 nM,100%
same,number of cells in percent relative to cells grown in 0.1% ethanol,RXRα−/−/RARγ−/− F9 cells; 10 nM,124%
same,number of cells in percent relative to cells grown in 0.1% ethanol,RXRα−/−/RARγ−/− F9 cells; 100 nM,143%
same,proportion of apoptotic nuclei and subcellular fragments (Hoechst 33258),RARγ−/− F9 cells [9]; 100 nM,(−)
same,proportion of apoptotic nuclei and subcellular fragments (Hoechst 33258),WT F9 cells [10]; 100 nM,(−)
same,proportion of apoptotic nuclei and subcellular fragments (Hoechst 33258),RARα−/− F9 cells [11]; 100 nM,(−)
CC1(C)CCC(C)(C)c2cc(C3(c4ccc(C(=O)O)cc4)OCCO3)ccc21 [panRXR agonist],proportion of outer layer of cells displaying VE morphology,RARα−/− F9 cells [1]; 1 μM,(−)
same,proportion of outer layer of cells displaying VE morphology,WT F9 cells [2]; 1 μM,(−)
same,proportion of outer layer of cells displaying VE morphology,RARγ−/− F9 cells [3]; 1 μM,(−)
same,number of cells in percent relative to cells grown in 0.1% ethanol,RARα−/− F9 cells [4]; 1 μM,100%
same,number of cells in percent relative to cells grown in 0.1% ethanol,RARγ−/− F9 cells [5]; 1 μM,100%
same,number of cells in percent relative to cells grown in 0.1% ethanol,WT F9 cells [6]; 1 μM,100%
same,number of cells in percent relative to cells grown in 0.1% ethanol,RXRα−/− F9 cells [7]; 1 μM,100%
same,number of cells in percent relative to cells grown in 0.1% ethanol,RXRα−/−/RARα−/− F9 cells [8]; 1 μM,100%
same,number of cells in percent relative to cells grown in 0.1% ethanol,RXRα−/−/RARγ−/− F9 cells; 1 μM,100%
same,proportion of apoptotic nuclei and subcellular fragments (Hoechst 33258),RARγ−/− F9 cells [9]; 1 μM,(−)
same,proportion of apoptotic nuclei and subcellular fragments (Hoechst 33258),WT F9 cells [10]; 1 μM,(−)
same,proportion of apoptotic nuclei and subcellular fragments (Hoechst 33258),RARα−/− F9 cells [11]; 1 μM,(−)
CC1(C)CCC(C)(C)c2cc(NC(=O)c3ccc(C(=O)O)cc3)ccc21 [panRAR agonist],proportion of apoptotic nuclei and subcellular fragments (Hoechst 33258),RARγ−/− F9 cells [9]; 100 nM,± (<1%)
same,proportion of apoptotic nuclei and subcellular fragments (Hoechst 33258),WT F9 cells [10]; 100 nM,+ (>1-10%)
same,proportion of apoptotic nuclei and subcellular fragments (Hoechst 33258),RXRα−/− F9 cells [12],±* (asterisks less than that in combination with 1 μM panRXR agonist)
same,proportion of apoptotic nuclei and subcellular fragments (Hoechst 33258),RARα−/− F9 cells [11]; 100 nM,+ (>1-10%)
same,proportion of apoptotic nuclei and subcellular fragments (Hoechst 33258),RXRα−/−/RARα−/− F9 cells [13],±* (asterisks less than that in combination with 1 μM panRXR agonist)
